Laboratory results taken from patent US20090105260A1, “Molecules to Enhance Percutaneous Delivery and Methods for Discovery Therefor” (priority 2005, published 2009).

System: porcine skin (ER); EpiDerm™ normal human derived epidermal keratinocytes (IP)
Assay: ER/IP: skin conductivity enhancement ratio (INSIGHT apparatus) divided by irritation potential (EpiDerm MTT viability)
Set-up: species or system Yorkshire pigs; human
Details: EpiDerm and INSIGHT apparatus, procedures of Examples 1 and 2; FIG. 32 left-hand panel
Description: Formulations containing 1.5% (wt/vol) of each CPE were prepared in a 1:1 EtOH:PBS (ethanol:phosphate buffered saline) solvent.
Irritation potential of formulations was estimated using EpiDerm™ (MatTek Corporation, Ashland, Mass. www.mattek.com), a cell culture of normal human derived epidermal keratinocytes. EpiDerm™ cultures were stored and handled according to the standard protocol MTT-ET-50 supplied by MatTek Corporation. To study the effect of the test formulations on cell viability, cell cultures were exposed to 10 μl of the test formulation consisting of 1.5% (wt/vol) of each CPE in a 1:1 EtOH:PBS solvent for 4 hours. Each test formulation was analyzed in duplicate. The cell cultures were then handled as per the MTT-ET-50 protocol. The optical absorbance data from the extracted samples was then used to calculate the percentage cell viability as recommended in the protocol. Based on the cell viability, the irritation potential, IP, was defined as follows:
1% (wt/vol) Triton X-100 dissolved in water was used as the positive control and 1:1 PBS:EtOH was used as negative control. […]
Enhancement ratios were measured using an apparatus (the INSIGHT apparatus) which consisted of a polycarbonate plate that served as the receptor plate and a Teflon® plate that served as the donor plate. […]
Skin impedance in each well was recorded using two electrodes. […]

C=C(C)C(=O)OCCCCCCCCCCCCCCCCCC [SM, stearyl methacrylate]
FP/IPDescriptor (ER/IP determined experimentally) relative to oleic acid: about 3 times
